Read-outs that look alike come from different tables or passages of the source.
Legend:
[1] = Animal models for glomerulonephritis, restenosis, cancer and pulmonary hypertension; type: in vivo
rat PDGF = rat PDGF (Rattus norvegicus, UniProt Q05028); experiment: Rat PDGF binding; settings: FIG. 14A
[2] = mouse, in vivo; for AUC / MRT / tmax / t½: 10 mg/kg
[3] = system: retinal pigmented epithelial (RPE) cells; experiment: RPE cell migration with PDGF; type: cell-based; settings: 100 ng/ml PDGF
Description: The graphs presented in FIG. 15E and 15F show the increasing effect of PDGF concentration on RPE cell migration.

[4] = rabbit, in vivo
Experimental: Studies were performed in the Dutch-belted rabbit model using […]. Aptamers were administered at a dose level of 1.0 mg/eye, bilaterally via […] intravitreal injection. Samples from the aqueous humor, vitreous humor and plasma were taken before administration of the aptamer and a 0.25 h, 6 h, 24 h, 72 h, 7d, […], and 21d. FIGS. 22A, 22B and 22C show the vitreous humor and/or plasma concentration of each aptamer through 25 days post administration.
The results shown in FIG. 22A were obtained using noncompartmental (NCA) analysis. The volume of rabbit vitreous humor was approximately 1.0-1.5 ml.

[5] = system: PDGF-induced 3T3 cell proliferation; experiment: PDGF-induced 3T3 cell proliferation; type: cell-based; settings: compared with anti-PDGF antibody (Upstate/Cell Signaling Solutions)
[6] = in vivo, iv
[7] = rabbit, in vivo; remark: listed apart in the source
PDGF [8] = molecular target: T1, PDGF (Homo sapiens, UniProt P01127); experiment: Cellular IC50 of anti-PDGF aptamer; type: cell-based
T1 sequence (P01127 82-190 limits assumed): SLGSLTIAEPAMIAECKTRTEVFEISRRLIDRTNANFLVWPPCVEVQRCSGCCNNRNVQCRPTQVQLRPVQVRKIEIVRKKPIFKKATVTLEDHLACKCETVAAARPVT

PDGF AA isoform = PDGF AA isoform (Homo sapiens, UniProt P04085); experiment: PDGF AA isoform binding; settings: FIG. 13A
PDGF [9] = molecular target: T1, PDGF; settings: iv
PDGF AB and BB = experiment: PDGF binding (Kd); design: species or system human
PDGF AB and BB, sequence (P01127 82-190 limits assumed): as above

rat PDGF, sequence (Q05028 74-182 limits assumed): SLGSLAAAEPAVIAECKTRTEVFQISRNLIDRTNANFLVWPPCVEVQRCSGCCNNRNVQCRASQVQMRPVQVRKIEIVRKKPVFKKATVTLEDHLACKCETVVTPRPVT

## 5′-[PEG40K]-NH2-dCdAdGdGdCfUdAfCmG-PEG-dCdGTdAmGdAmGdCdAfUfCmA-PEG-TdGdATfCfCfUmG-3T-3′ [ARC127]
[1]
  efficacy in animal models: efficacy in the animal models for glomerulonephritis, restenosis, cancer and pulmonary hypertension
Rat PDGF
  affinity for human and rat PDGFs: equivalent affinity
[2]; ip
  bioavailability: 62.5%
  AUC: 143.6055 µM·h
  MRT: 11.23 h
  tmax: 8 h
  t½: 7.86 h
[2]; iv
  AUC: 229.6868 µM·h
  MRT: 6.57 h
  tmax: 2 h
  t½: 8.60 h
[2]; sc
  bioavailability: 24.0%
  AUC: 55.0309 µM·h
  MRT: 16.63 h
  tmax: 8 h
  t½: 9.18 h
[3]
  blocking of RPE cell migration: specifically blocks migration of retinal pigmented epithelial (RPE) cells
[4]
  Cl: 0.29 mL?d^−1
  Cmax: ~100 µM
  Vss: 1.42 mL
  half life in the vitreous humor: 84 h
  t1/2: 92.9 h
  tmax: 0.25 h
[5]
  ability to block PDGF-induced 3T3 cell proliferation: comparable to the ability of an anti-PDGF antibody
[6]
  systemic half life: 6 to 12 h
[7]
  half life (intravitreal): 92.9 h
PDGF [8]
  IC50: 2 nM
PDGF AA isoform
  recognition of AA isoform of PDGF: not the AA isoform alone
PDGF [9]
  duration of measurable activity in vivo: 48 h
PDGF AB and BB; FIGS. 13A and 13B
  recognition of BB and AB isoforms of PDGF: recognizes the BB and AB isoforms of PDGF
PDGF AB and BB; anti-PDGF aptamer, isoform not stated, read-out: dissociation constant (Kd)
  Kd: 0.1 nM
PDGF AB and BB; read-out: Kd, PDGF AB and BB
  Kd: 0.1 nM
